Measurements taken from PMC5218480 (PLoS ONE, 2017).

Test system: MV-4-11 cells
Experiment: Gene expression microarray analysis (Affymetrix PrimeView) and GSEA
Format: cell-based, human
Parameters: RFU PODN (11730768_x_at) / Fold change /veh PODN (11730768_x_at) / RFU LINC00158 (11744669_a_at) / Fold change /veh LINC00158 (11744669_a_at) / RFU DUSP10 (11751237_a_at) / Fold change /veh DUSP10 (11751237_a_at) / RFU ID3 (11757404_x_at) / Fold change /veh ID3 (11757404_x_at) / RFU PLEKHG5 (11737974_s_at) / Fold change /veh PLEKHG5 (11737974_s_at) / RFU LRRC4B (11730491_at) / Fold change /veh LRRC4B (11730491_at) / RFU GIMAP4 (11747438_a_at) / Fold change /veh GIMAP4 (11747438_a_at) / RFU KRT8 (11758183_x_at) / Fold change /veh KRT8 (11758183_x_at) / RFU CNN1 (11734310_a_at) / Fold change /veh CNN1 (11734310_a_at) / RFU VPS37D (11726825_at) / Fold change /veh VPS37D (11726825_at) / RFU C10orf10 (11716522_x_at) / Fold change /veh C10orf10 (11716522_x_at) / RFU KIR2DL2 /// KIR2DL4 /// KIR2DL5A /// KIR2DL5B /// KIR2DS1 /// KIR2DS2 /// KIR2DS3 /// KIR2DS4 /// KIR3DL3 /// KIR3DL3 /// KIR3DS1 (11738374_at) / Fold change /veh KIR2DL2 /// KIR2DL4 /// KIR2DL5A /// KIR2DL5B /// KIR2DS1 /// KIR2DS2 /// KIR2DS3 /// KIR2DS4 /// KIR3DL3 /// KIR3DL3 /// KIR3DS1 (11738374_at) / RFU C1QL1 (11718748_at) / Fold change /veh C1QL1 (11718748_at) / RFU TMPRSS4 (11747572_a_at) / Fold change /veh TMPRSS4 (11747572_a_at) / RFU HAMP (11756126_x_at) / Fold change /veh HAMP (11756126_x_at) / RFU RNFT2 (11725882_a_at) / Fold change /veh RNFT2 (11725882_a_at) / RFU NR4A2 (11747474_a_at) / Fold change /veh NR4A2 (11747474_a_at) / RFU ABCC12 (11746883_a_at) / Fold change /veh ABCC12 (11746883_a_at) / RFU TMEM136 (11760407_x_at) / Fold change /veh TMEM136 (11760407_x_at) / RFU CLDN22 /// WWC2 (11732394_at) / Fold change /veh CLDN22 /// WWC2 (11732394_at) / RFU HLA-DPB1 (11760878_x_at) / Fold change /veh HLA-DPB1 (11760878_x_at) / RFU SPINT1 (11716480_a_at) / Fold change /veh SPINT1 (11716480_a_at) / RFU GAP43 (11754022_s_at) / Fold change /veh GAP43 (11754022_s_at) / RFU A4GNT (11735810_at) / Fold change /veh A4GNT (11735810_at) / RFU PRB3 (11715151_x_at) / Fold change /veh PRB3 (11715151_x_at) / RFU TUBB4B (11761932_at) / Fold change /veh TUBB4B (11761932_at) / RFU CAPN14 (11732068_a_at) / Fold change /veh CAPN14 (11732068_a_at) / RFU TMCC2 (11721928_a_at) / Fold change /veh TMCC2 (11721928_a_at) / RFU IRGQ (11745062_a_at) / Fold change /veh IRGQ (11745062_a_at) / RFU FAM174B (11720279_a_at) / Fold change /veh FAM174B (11720279_a_at) / RFU TMPRSS4 (11748680_a_at) / Fold change /veh TMPRSS4 (11748680_a_at) / RFU FAM212B (11763350_a_at) / Fold change /veh FAM212B (11763350_a_at) / RFU PLEKHG5 (11743358_a_at) / Fold change /veh PLEKHG5 (11743358_a_at) / RFU ZSCAN30 (11745921_a_at) / Fold change /veh ZSCAN30 (11745921_a_at) / RFU CMKLR1 (11741424_a_at) / Fold change /veh CMKLR1 (11741424_a_at) / RFU LOC101060620 /// MAPK8IP1 (11723275_at) / Fold change /veh LOC101060620 /// MAPK8IP1 (11723275_at) / RFU SPTSSB (11747773_x_at) / Fold change /veh SPTSSB (11747773_x_at) / RFU PRSS12 (11739890_at) / Fold change /veh PRSS12 (11739890_at) / RFU BIN1 (11741810_x_at) / Fold change /veh BIN1 (11741810_x_at) / RFU WNT11 (11732464_a_at) / Fold change /veh WNT11 (11732464_a_at) / RFU C10orf10 (11716521_a_at) / Fold change /veh C10orf10 (11716521_a_at) / RFU C5orf56 (11738089_at) / Fold change /veh C5orf56 (11738089_at) / RFU CYB561 (11721691_x_at) / Fold change /veh CYB561 (11721691_x_at) / RFU ANKRD19P (11752326_a_at) / Fold change /veh ANKRD19P (11752326_a_at) / RFU OR2T12 /// OR2T33 /// OR2T8 (11738714_s_at) / Fold change /veh OR2T12 /// OR2T33 /// OR2T8 (11738714_s_at) / RFU VCAN (11748164_a_at) / Fold change /veh VCAN (11748164_a_at) / RFU JSRP1 (11732532_at) / Fold change /veh JSRP1 (11732532_at) / RFU KRTAP10-11 (11738290_x_at) / Fold change /veh KRTAP10-11 (11738290_x_at) / RFU MYO3A (11730013_a_at) / Fold change /veh MYO3A (11730013_a_at) / RFU EBF3 (11725865_a_at) / Fold change /veh EBF3 (11725865_a_at) / RFU CAMK2N1 (11719241_x_at) / Fold change /veh CAMK2N1 (11719241_x_at) / RFU C5orf56 (11738088_a_at) / Fold change /veh C5orf56 (11738088_a_at) / RFU OLFML3 (11715873_a_at) / Fold change /veh OLFML3 (11715873_a_at) / RFU LOC100653217 /// NTM (11731650_a_at) / Fold change /veh LOC100653217 /// NTM (11731650_a_at) / RFU MAPK11 (11762145_a_at) / Fold change /veh MAPK11 (11762145_a_at) / RFU FIZ1 (11724087_x_at) / Fold change /veh FIZ1 (11724087_x_at) / RFU OASL (11726364_x_at) / Fold change /veh OASL (11726364_x_at) / RFU SOX15 (11748057_x_at) / Fold change /veh SOX15 (11748057_x_at) / RFU CD79A (11719716_a_at) / Fold change /veh CD79A (11719716_a_at) / RFU HIST1H1D (11736915_at) / Fold change /veh HIST1H1D (11736915_at) / RFU CASKIN2 (11723855_a_at) / Fold change /veh CASKIN2 (11723855_a_at) / RFU LOC730098 (11760151_x_at) / Fold change /veh LOC730098 (11760151_x_at) / RFU OR4N2 (11742367_at) / Fold change /veh OR4N2 (11742367_at) / RFU PRRT2 (11749266_a_at) / Fold change /veh PRRT2 (11749266_a_at) / RFU SNX32 (11753110_a_at) / Fold change /veh SNX32 (11753110_a_at) / RFU CDHR5 (11726645_a_at) / Fold change /veh CDHR5 (11726645_a_at) / RFU RCAN1 (11760418_a_at) / Fold change /veh RCAN1 (11760418_a_at) / RFU FAM167A (11723789_a_at) / Fold change /veh FAM167A (11723789_a_at) / RFU FAM26E (11764081_at) / Fold change /veh FAM26E (11764081_at) / RFU ISYNA1 (11749810_s_at) / Fold change /veh ISYNA1 (11749810_s_at) / RFU ACY1 (11761880_at) / Fold change /veh ACY1 (11761880_at) / RFU 11764098_at / Fold change /veh 11764098_at / RFU SAMD14 (11745864_x_at) / Fold change /veh SAMD14 (11745864_x_at) / RFU NPB (11741838_a_at) / Fold change /veh NPB (11741838_a_at) / RFU TMPRSS6 (11731388_a_at) / Fold change /veh TMPRSS6 (11731388_a_at) / RFU KRTAP10-2 (11738614_at) / Fold change /veh KRTAP10-2 (11738614_at) / RFU ARHGAP8 /// PRR5-ARHGAP8 (11727945_x_at) / Fold change /veh ARHGAP8 /// PRR5-ARHGAP8 (11727945_x_at) / RFU KRTAP5-7 /// NADSYN1 (11734609_at) / Fold change /veh KRTAP5-7 /// NADSYN1 (11734609_at) / RFU RASL12 (11751679_a_at) / Fold change /veh RASL12 (11751679_a_at) / RFU CDKN2B (11736163_a_at) / Fold change /veh CDKN2B (11736163_a_at) / RFU PRF1 (11729649_at) / Fold change /veh PRF1 (11729649_at) / RFU, ZNF638 /// ZNF638-IT1 / Fold change vs veh, ZNF638 /// ZNF638-IT1 / RFU, PANK3 / Fold change vs veh, PANK3 / RFU, SH3YL1 / Fold change vs veh, SH3YL1 / RFU, ZEB2 / Fold change vs veh, ZEB2 / RFU, NRIP1 / Fold change vs veh, NRIP1 / RFU, PTTG1IP / Fold change vs veh, PTTG1IP / RFU, CAPN2 / Fold change vs veh, CAPN2 / RFU, MED14 / Fold change vs veh, MED14 / RFU, SNORA58 / Fold change vs veh, SNORA58 / RFU, C1orf63 / Fold change vs veh, C1orf63 / RFU, LRRFIP1 / Fold change vs veh, LRRFIP1 / RFU, NDUFAF7 / Fold change vs veh, NDUFAF7 / RFU, SLC12A2 / Fold change vs veh, SLC12A2 / RFU, IBTK / Fold change vs veh, IBTK / RFU, ESF1 / Fold change vs veh, ESF1 / Fold change vs veh, TMEM50B / RFU, TAOK1 / Fold change vs veh, TAOK1 / RFU, ACBD3 / Fold change vs veh, ACBD3 / RFU, TMA16 / Fold change vs veh, TMA16 / RFU, RWDD3 / Fold change vs veh, RWDD3 / RFU, BCAT1 / Fold change vs veh, BCAT1 / RFU, EDEM3 / Fold change vs veh, EDEM3 / RFU, TMEM33 / Fold change vs veh, TMEM33 / RFU, WDR75 / Fold change vs veh, WDR75 / RFU, AHCTF1 / Fold change vs veh, AHCTF1 / RFU, TFRC / Fold change vs veh, TFRC / RFU, ZDHHC17 / Fold change vs veh, ZDHHC17 / RFU, NOM1 / Fold change vs veh, NOM1 / RFU, ARL8B / Fold change vs veh, ARL8B / RFU, ZBTB11 / Fold change vs veh, ZBTB11 / RFU, TAMM41 / Fold change vs veh, TAMM41 / RFU, KIAA1704 /// LOC100996395 / Fold change vs veh, KIAA1704 /// LOC100996395 / RFU, ING1 / Fold change vs veh, ING1 / RFU, TRMT61B / Fold change vs veh, TRMT61B / RFU, FUBP3 / Fold change vs veh, FUBP3 / RFU, TP53 / Fold change vs veh, TP53 / RFU, TNKS2 / Fold change vs veh, TNKS2 / RFU, ZFP14 / Fold change vs veh, ZFP14 / RFU, ACTR2 / Fold change vs veh, ACTR2 / RFU, PPP3R1 / Fold change vs veh, PPP3R1 / RFU, PIK3R1 / Fold change vs veh, PIK3R1 / RFU, HNRNPA1 / Fold change vs veh, HNRNPA1 / RFU, RNF170 / Fold change vs veh, RNF170 / RFU, ZNF28 / Fold change vs veh, ZNF28 / RFU, RNGTT / Fold change vs veh, RNGTT / RFU, OGT / Fold change vs veh, OGT / RFU, BRD1 / Fold change vs veh, BRD1 / RFU, MARS / Fold change vs veh, MARS / RFU, ZNF655 / Fold change vs veh, ZNF655 / RFU, FAHD1 / Fold change vs veh, FAHD1 / RFU, BDP1 / Fold change vs veh, BDP1 / RFU, LRRCC1 / Fold change vs veh, LRRCC1 / RFU, ARID1A / Fold change vs veh, ARID1A / RFU, ZNF146 / Fold change vs veh, ZNF146 / RFU, ZNF330 / Fold change vs veh, ZNF330 / RFU, GPN3 / Fold change vs veh, GPN3 / RFU, C9orf123 / Fold change vs veh, C9orf123 / RFU, N4BP2L2 / Fold change vs veh, N4BP2L2 / RFU, ARFIP1 / Fold change vs veh, ARFIP1 / RFU, FAM179B / Fold change vs veh, FAM179B / RFU, BCL10 / Fold change vs veh, BCL10 / RFU, UHRF1BP1L / Fold change vs veh, UHRF1BP1L / RFU, BET1 / Fold change vs veh, BET1 / RFU, CNOT2 / Fold change vs veh, CNOT2 / RFU, ZNF268 / Fold change vs veh, ZNF268 / Fold change vs veh, ZNF507 / RFU, DGCR2 / Fold change vs veh, DGCR2 / RFU, WDSUB1 / Fold change vs veh, WDSUB1 / Fold change vs veh, HSP90B1 /// MIR3652 / RFU, ADSS / Fold change vs veh, ADSS / RFU, GK / Fold change vs veh, GK / RFU, ZNF148 / Fold change vs veh, ZNF148 / RFU, TAF9 / Fold change vs veh, TAF9 / RFU, SLC1A5 / Fold change vs veh, SLC1A5 / RFU, SLMO2 / Fold change vs veh, SLMO2 / RFU, ABCC4 / Fold change vs veh, ABCC4 / RFU, LOC101060439 /// RAP1B / Fold change vs veh, LOC101060439 /// RAP1B / RFU, RFX7 / Fold change vs veh, RFX7 / RFU, GTPBP10 / Fold change vs veh, GTPBP10 / RFU, CNEP1R1 / Fold change vs veh, CNEP1R1 / RFU, BIVM-ERCC5 /// ERCC5 / Fold change vs veh, BIVM-ERCC5 /// ERCC5 / RFU, ILF3 / Fold change vs veh, ILF3 / RFU 11762660_at / Fold change /veh 11762660_at / RFU VCAN (11757783_s_at) / Fold change /veh VCAN (11757783_s_at) / RFU DDX43 (11728927_at) / Fold change /veh DDX43 (11728927_at) / RFU KRT8 (11758188_x_at) / Fold change /veh KRT8 (11758188_x_at) / RFU NKD1 (11759106_at) / Fold change /veh NKD1 (11759106_at) / RFU SRD5A1 (11742802_a_at) / Fold change /veh SRD5A1 (11742802_a_at) / RFU TPSAB1 /// TPSB2 (11721975_s_at) / Fold change /veh TPSAB1 /// TPSB2 (11721975_s_at) / RFU GSTM3 (11746129_a_at) / Fold change /veh GSTM3 (11746129_a_at) / RFU IL23R (11737362_x_at) / Fold change /veh IL23R (11737362_x_at) / RFU TMEM51 (11727254_a_at) / Fold change /veh TMEM51 (11727254_a_at) / RFU PIWIL2 (11732686_x_at) / Fold change /veh PIWIL2 (11732686_x_at) / RFU ORM1 (11744905_x_at) / Fold change /veh ORM1 (11744905_x_at) / RFU CCDC152 (11743942_at) / Fold change /veh CCDC152 (11743942_at) / RFU ECM1 (11717891_a_at) / Fold change /veh ECM1 (11717891_a_at) / RFU IL23R (11748794_a_at) / Fold change /veh IL23R (11748794_a_at) / RFU TNFAIP8L3 (11732012_x_at) / Fold change /veh TNFAIP8L3 (11732012_x_at) / RFU MBOAT4 (11741988_at) / Fold change /veh MBOAT4 (11741988_at) / RFU 11764193_at / Fold change /veh 11764193_at / RFU TMEM53 (11763286_at) / Fold change /veh TMEM53 (11763286_at) / RFU MAGEB2 (11727129_at) / Fold change /veh MAGEB2 (11727129_at) / RFU TMEM200A (11744735_a_at) / Fold change /veh TMEM200A (11744735_a_at) / RFU CCDC152 (11751479_a_at) / Fold change /veh CCDC152 (11751479_a_at) / RFU FAM211A (11726209_a_at) / Fold change /veh FAM211A (11726209_a_at) / RFU RGS16 (11746705_a_at) / Fold change /veh RGS16 (11746705_a_at) / RFU VCAN (11755009_s_at) / Fold change /veh VCAN (11755009_s_at) / RFU RHOB (11743442_s_at) / Fold change /veh RHOB (11743442_s_at) / RFU RGS16 (11720943_a_at) / Fold change /veh RGS16 (11720943_a_at) / RFU RGS16 (11720944_at) / Fold change /veh RGS16 (11720944_at) / RFU, VPS4B / Fold change vs veh, VPS4B / RFU, CREB1 / Fold change vs veh, CREB1 / RFU, DNAJC13 / Fold change vs veh, DNAJC13 / RFU, GNAQ / Fold change vs veh, GNAQ / RFU, CDK5R1 / Fold change vs veh, CDK5R1 / RFU, ZRANB3 / Fold change vs veh, ZRANB3 / RFU, CUL4A / Fold change vs veh, CUL4A / RFU, CCNY / Fold change vs veh, CCNY / RFU, UFL1 / Fold change vs veh, UFL1 / RFU, COG3 / Fold change vs veh, COG3 / RFU, DIAPH2 / Fold change vs veh, DIAPH2 / RFU, SKA2 / Fold change vs veh, SKA2 / RFU, AFF3 / Fold change vs veh, AFF3 / RFU, LMF1 / Fold change vs veh, LMF1 / RFU, IPO11 / Fold change vs veh, IPO11 / RFU, DFFB / Fold change vs veh, DFFB / RFU, FOXP1 / Fold change vs veh, FOXP1 / RFU, CARD8 / Fold change vs veh, CARD8 / RFU, STRN3 / Fold change vs veh, STRN3 / RFU, ADK / Fold change vs veh, ADK / RFU, RASSF2 / Fold change vs veh, RASSF2 / RFU, WIPF1 / Fold change vs veh, WIPF1 / RFU, LARP1B / Fold change vs veh, LARP1B / RFU, RASA1 / Fold change vs veh, RASA1 / RFU, RB1 / Fold change vs veh, RB1 / RFU, PPFIA1 / Fold change vs veh, PPFIA1 / RFU, MAT2A / Fold change vs veh, MAT2A / RFU, CCT5 / Fold change vs veh, CCT5 / RFU, WDR92 / Fold change vs veh, WDR92 / RFU, CUX1 / Fold change vs veh, CUX1 / RFU, TTC7A / Fold change vs veh, TTC7A / RFU, TMEM135 / Fold change vs veh, TMEM135 / RFU, DEPTOR / Fold change vs veh, DEPTOR / RFU, CPM / Fold change vs veh, CPM / RFU, DNAJB6 / Fold change vs veh, DNAJB6 / RFU, CACNA2D3 / Fold change vs veh, CACNA2D3 / RFU, DTX4 / Fold change vs veh, DTX4 / RFU, TFCP2 / Fold change vs veh, TFCP2 / RFU, GMCL1 /// GMCL1P1 / Fold change vs veh, GMCL1 /// GMCL1P1 / RFU, AEBP2 / Fold change vs veh, AEBP2 / RFU, SNHG1 /// SNORD22 /// SNORD25 /// SNORD26 /// SNORD27 /// SNORD28 /// SNORD29 /// SNORD31 / Fold change vs veh, SNHG1 /// SNORD22 /// SNORD25 /// SNORD26 /// SNORD27 /// SNORD28 /// SNORD29 /// SNORD31 / Fold change (Aza/veh), C12orf56 (ProbeSet 11735607_a_at) / Fold change (ACY-1035/veh), C12orf56 (ProbeSet 11735607_a_at) / Fold change (Aza/veh), FGFR1OP (ProbeSet 11751329_s_at) / Fold change (ACY-1035/veh), FGFR1OP (ProbeSet 11751329_s_at) / Fold change (Aza/veh), VPS36 (ProbeSet 11739960_a_at) / Fold change (ACY-1035/veh), VPS36 (ProbeSet 11739960_a_at) / RFU SYPL1 (11715823_x_at) / Fold change /veh SYPL1 (11715823_x_at) / RFU IGFBP7 (11715501_s_at) / Fold change /veh IGFBP7 (11715501_s_at) / RFU REEP3 (11722064_at) / Fold change /veh REEP3 (11722064_at) / RFU IGLL1 (11728026_x_at) / Fold change /veh IGLL1 (11728026_x_at): dose or concentration left out as unconfirmed
Conditions: MV-4-11 cells, 48 hours

Nc1ccc(-c2cccs2)cc1NC(=O)c1ccc2c(c1)cc(C1CC1)n2CCN1CCOCC1 [ACY-1035]
Fold change /veh TNFAIP8L3 (11732012_x_at): 1.18
